# Reference: patent US9616028B2, “Bilayer tablet formulations” (AstraZeneca AB, priority 2009, dated 2017)
# Test system: patients with inadequately controlled type 2 diabetes
# Experimental: The data represent findings from a randomized, double-blind, placebo-controlled study of 546 individuals with type 2 diabetes whose HbA1c was greater than or equal to 7.0 percent and less than or equal to 10 percent at baseline. […] Patients in all arms also received metformin (greater than or equal to 1500 mg/d). […] Exploratory endpoints included body weight decrease of greater than or equal to 5 percent or greater than or equal to 10 percent as well as body weight percent change from baseline.
smiles,measurement,setting,value
"CCOc1ccc(Cc2cc([C@@H]3O[C@H](CO)[C@@H](O)[C@H](O)[C@H]3O)ccc2Cl)cc1 [dapagliflozin, (2S,3R,4R,5S,6R)-2-(4-chloro-3-(4-ethoxybenzyl)phenyl)-6-(hydroxymethyl)tetrahydro-2H-pyran-3,4,5-triol]",mean reductions in body weight compared to individuals taking placebo,"add-on to metformin, 24 weeks",statistically greater
same,adjusted mean change in FPG from baseline at Week 24,dapagliflozin 10 mg plus metformin,-23.5 mg/dL
same,patients who achieved weight losses greater than or equal to 5 percent compared to placebo,"exploratory endpoint, add-on to metformin, 24 weeks",more patients
